Measured values as given in article PMC3753236, “Glucocorticosteroids in Nano-Sterically Stabilized Liposomes Are Efficacious for Elimination of the Acute Symptoms of Experimental Cerebral Malaria” (PLoS ONE, 2013).

Key:
[1] = test system: non-chloroquine resistant P. falciparum; assay: P. falciparum culture, 3H-hypoxanthine incorporation; assay type: cell-based, Plasmodium falciparum; settings: at concentrations up to 33 µM
Description: The parasite was grown in a human red blood cell culture (RPMI 1640, 7.5% bicarbonate, 50 µM hypoxanthine, 50 µg/ml gentamycin, and 7.5% human plasma) at 1% hematocrit and 2% parasitemia. Cultures containing predominantly ring forms were used; synchronization of the culture was performed if trophozoites represented more than 1–2% of the various developmental stages. Briefly, the culture was centrifuged and the supernatant replaced by 5% (isotonic) sorbitol. After 5 minutes at 37°C the culture was centrifuged again and the supernatant replaced by culture medium to obtain a final 1% hematocrit.
Drug testing was performed in 96-well microtiter plates incubated at 37°C in a 5% O2, 5% CO2, and 90% N2 gas mixture for 72 hours. After 48 hours, 1 µCi ^3H-hypoxanthine was added to each well and the plates were read the next day using a scintillation counter.

[2] = test system: Plasmodium berghei ANKA (PbA); assay: Early treatment of experimental cerebral malaria (ECM), ICR mice infected with PbA; settings: 10 mg/kg/d on days 3, 5, 7, 9 p.i.
Description: (§1) Plasmodium berghei ANKA (PbA; PbA MRA-311, CDC, Atlanta, GA, USA) was maintained in vivo by serial transfer of parasitized erythrocytes (PE) from infected to naïve mice. Experiments were also performed using a second strain of PbA, similarly maintained, and designated PbAus in the text (courtesy of Prof. G. Grau, University of Sydney, Australia).
(§2) Parasitemia was monitored by thin blood smears prepared from tail blood. These were stained with a 25% Giemsa solution, examined under a light microscope, and parasitemia determined as the percent of infected red blood cells per 10,000 erythrocytes. Disease severity was determined according to scoring of neurological symptoms and changes in weight and temperature, as previously described […] Parasitemias above 20% and the absence of neurological symptoms indicated severe anemic malaria.
For early ECM treatment, injections were given on days 3, 5, 7, and 9 p.i; for late treatment, treatment was given every other day, starting on day 5 p.i. for a total of at least two injections. Infected, non-treated control mice were injected with 5% dextrose or empty nSSL. Clinical signs and parasitemias were monitored and disease severity scored as described […] Surviving mice were treated with 2×10 mg/kg/d artemisone by intraperitoneal injection in order to achieve cure; mice were monitored for four weeks post-artemisone treatment in order to allow detection of possible late recrudescence. […] At each time-point, at least 3 mice from each group were chosen at random, deeply anesthetized, and brains were removed following intracardial perfusion (using saline, if organs were destined for real-time (rt)PCR analysis, or saline/formalin, if organs were destined for histopathological analysis). Organs destined for rtPCR analysis were snap-frozen in liquid nitrogen and stored at −80°C until use. Organs destined for immunohistology were immediately immersed in cryoprotectant solution (see below).

[3] = test system: Plasmodium berghei ANKA (PbAus); assay: Early treatment of ECM, PbAus-inoculated C57Bl/6 mice (with sequential artemisone); settings: for Death: ECM (number of mice) / Death: Severe anemic malaria (number of mice) / Death: Toxicity (number of mice) / Death: ECM (%) / Death: Severe anemic malaria (%) / Average clinical score (±SEM): days 3, 5, 7, 9 p.i.; for Death: ECM (%) / Death: Severe anemic malaria (%): excludes acute toxicity deaths; for Average clinical score (±SEM): 11 days post-inoculation; for % survival / Group score: 20 mg/kg (Fig 6 legend)
Description: as §1, §2
For early ECM treatment, injections were given on days 3, 5, 7, and 9 p.i; for late treatment, treatment was given every other day, starting on day 5 p.i. for a total of at least two injections. Infected, non-treated control mice were injected with 5% dextrose or empty nSSL. Clinical signs and parasitemias were monitored and disease severity scored as described […] At each time-point, at least 3 mice from each group were chosen at random, deeply anesthetized, and brains were removed following intracardial perfusion (using saline, if organs were destined for real-time (rt)PCR analysis, or saline/formalin, if organs were destined for histopathological analysis). Organs destined for rtPCR analysis were snap-frozen in liquid nitrogen and stored at −80°C until use. Organs destined for immunohistology were immediately immersed in cryoprotectant solution (see below).

[4] = test system: PbAus-infected C57Bl/6 mice; assay: Brain edema, Evans blue dye extravasation; assay type: in vivo; settings: treatment days 3, 5, 7, 9 p.i.
Description: BBB disruption was assessed by quantifying Evans blue dye extravasation. 200 µl 2% (w/v) Evan's blue solution in PBS was injected i.v. to pre-warmed mice. After 2 h mice were anesthetized and perfused intracardially with ice-cold PBS. Brains were extracted, homogenized in 1 ml PBS, and centrifuged; the supernatant was read by spectrophotometry at 510 nm. Values were normalized to the values from the brains of non-infected mice similarly injected.

[5] = Biodistribution of BMS administered as free BMS or nSSL-BMS; settings: infected mice; for concentration at 1 h / concentration at 6 h / concentration at 24 h / concentration at 48 h: C57Bl/6 Ola-Hsd, mouse, iv, µg drug/g organ; for concentration at 1 h: 1 h post-injection; for concentration at 48 h: 48 h post-injection
Description: The total and intraliposomal (after treatment with Dowex 2X-800 anion exchanger, pH 5, which binds all free drug) concentrations of MPS or BMS and their hydrolysis products were quantified using HPLC [5]. Liposome size distribution, phospholipid concentration, drug to lipid ratio, and level of free drug (i.e. percent drug encapsulated) were determined (see Table 1) as previously described.
At 1 h, 6 h, 24 h, and 48 h post-injection, mice (n = 3 per group) were anesthetized and sacrificed for organ collection. Organs were pooled and homogenized in 5% dextrose, followed by spiking with hydrocortisone, which served as an internal standard for extraction and sample processing. The homogenates were extracted as described elsewhere. Quantification of BMS and its derivatives was performed by HPLC as described above.

[6] = day 5 p.i., treatment days 3, 5, 7, 9 p.i.
[7] = day 9 p.i., treatment days 3, 5, 7, 9 p.i.
[8] = brain, 20 mg/kg, BMS in brain, 20 mg/kg i.v. on day 6 p.i.
[9] = heart, 20 mg/kg, BMS in heart, 20 mg/kg i.v. on day 6 p.i.
[10] = liver, 20 mg/kg, BMS in liver, 20 mg/kg i.v. on day 6 p.i.
[11] = lungs, 20 mg/kg, BMS in lungs, 20 mg/kg i.v. on day 6 p.i.

C[C@H]1C[C@H]2[C@@H]3CCC4=CC(=O)C=C[C@]4(C)[C@@]3(F)[C@@H](O)C[C@]2(C)[C@@]1(O)C(=O)COC(=O)CCC(=O)O [BMS, β-methasone hemisuccinate]
IC50 (effect against cultured P. falciparum) [1]: no effect ^*
IC50 (effect against cultured P. falciparum) ([1]; listed as Free BMS): not effective
ECM rate (incidence of CM) [2]: 67%
Death: ECM (number of mice) ([3]; 5 mg/kg i.v.): 5
Death: Severe anemic malaria (number of mice) ([3]; 5 mg/kg i.v.): 1
Death: Toxicity (number of mice) ([3]; 5 mg/kg i.v.): 3
Death: ECM (%) ([3]; 5 mg/kg i.v.): (83%)
Death: Severe anemic malaria (%) ([3]; 5 mg/kg i.v.): (16%)
Death: ECM (number of mice) ([3]; 10 mg/kg i.v.): 9
Death: Severe anemic malaria (number of mice) ([3]; 10 mg/kg i.v.): 1
Death: Toxicity (number of mice) ([3]; 10 mg/kg i.v.): 3
Death: ECM (%) ([3]; 10 mg/kg i.v.): (90%)
Death: Severe anemic malaria (%) ([3]; 10 mg/kg i.v.): (10%)
Average clinical score (±SEM) ([3]; 10 mg/kg): 7.5±1.6
Death: ECM (number of mice) ([3]; 20 mg/kg i.v.): 9
Death: Severe anemic malaria (number of mice) ([3]; 20 mg/kg i.v.): 3
Death: Toxicity (number of mice) ([3]; 20 mg/kg i.v.): 5
Death: ECM (%) ([3]; 20 mg/kg i.v.): (75%)
Death: Severe anemic malaria (%) ([3]; 20 mg/kg i.v.): (25%)
Survival rate on day 13 p.i., at the end of the cerebral phase ([3]; 20 mg/kg on days 3, 5, 7, 9 p.i., listed as free BMS): 12%
Average clinical score (±SEM) ([3]; 20 mg/kg): 12.3±2.4
% survival [3, 6]: 100%
Group score [3, 6]: 1.3±1.1
% survival [3, 7]: 47%
Group score [3, 7]: 8.4 ±1.7
Incidence of ECM ([3]; treatment days 3, 5, 7, 9 p.i., as quoted with the gene expression study): 75%
Edema, ng Evan's blue/brain ([4]; day 5 p.i.): 263±95 ng Evan's blue/brain
Edema, ng Evan's blue/brain ([4]; day 9 p.i.): 263±6 ng Evan's blue/brain
concentration at 1 h [5, 8]: 400 ng/g
concentration at 6 h ([5]; brain, 20 mg/kg, BMS in brain, 20 mg/kg i.v. on day 6 p.i., 6 h post-injection): 100 ng/g
concentration at 24 h ([5]; brain, 20 mg/kg, BMS in brain, 20 mg/kg i.v. on day 6 p.i., 24 h post-injection): 100 ng/g
concentration at 48 h [5, 8]: 100 ng/g
concentration at 1 h [5, 9]: 2900 ng/g
concentration at 6 h ([5]; heart, 20 mg/kg, BMS in heart, 20 mg/kg i.v. on day 6 p.i., 6 h post-injection): 2400 ng/g
concentration at 24 h ([5]; heart, 20 mg/kg, BMS in heart, 20 mg/kg i.v. on day 6 p.i., 24 h post-injection): ~3000 ng/g
concentration at 48 h [5, 9]: 3300 ng/g
concentration at 1 h [5, 10]: 2400 ng/g
concentration at 6 h ([5]; liver, 20 mg/kg, BMS in liver, 20 mg/kg i.v. on day 6 p.i., 6 h post-injection): 3400 ng/g
concentration at 24 h ([5]; liver, 20 mg/kg, BMS in liver, 20 mg/kg i.v. on day 6 p.i., 24 h post-injection): 400 ng/g
concentration at 48 h [5, 10]: 400 ng/g
concentration at 1 h [5, 11]: 1600 ng/g
concentration at 6 h ([5]; lungs, 20 mg/kg, BMS in lungs, 20 mg/kg i.v. on day 6 p.i., 6 h post-injection): 2400 ng/g
concentration at 24 h ([5]; lungs, 20 mg/kg, BMS in lungs, 20 mg/kg i.v. on day 6 p.i., 24 h post-injection): 2000 ng/g
concentration at 48 h [5, 11]: 2000 ng/g
BMS in lungs, µg drug/g organ ([5]; 20 mg/kg i.v. on day 6 p.i., 24 h post-injection, listed as Free BMS, 20 mg/kg): 1.9 µg drug/g organ
Brain to liver BMS concentration ratio ([5]; 6 h post-injection): 0.03
